The test system of data set [1] is E. coli ATCC25922. The data set can be described thus: Broth microdilution MIC/MBC (ISO 20776-1). It is filed as cell-based, Escherichia coli. The conditions noted are these: for MBC: E. coli ATCC25922, >99.99% reduction of growth; for MIC: E. coli ATCC25922, MH II broth, 35 °C, 24 h. As to the method:
(§1) Bacterial strains and cell lines were obtained from the American Type Culture Collection (ATCC).[59] […] Antimicrobial activity was tested in Müeller Hinton (MH) II broth (Becton Dickinson). For anticancer activity assay, the following reagents from Merk were used: 3-(4,5-dimethylthiazol-2-yl)-2,5-diphenyltetrazolium bromide (MTT), sodium dodecyl sulfate (SDS) and HCl. The solubilized formazan product was spectrophotometrically quantified in a Power Wave XS (Bio Tek, Winooski, VT, USA) microplate reader. The HL-60 and PC-3 cells were grown in RPMI-1640 medium with stable glutamine (Biowest) supplemented with 10% (v/v) of heat-inactivated fetal bovine serum (FBS, Biowest) and 1% (v/v) of antibiotic–antimycotic solution (Biowest). The SKOV-3 cells were grown in McCoy's 5A medium with L-glutamine (Biowest) supplemented with 10% (v/v) heat-inactivated FBS, and 1% (v/v) antibiotic–antimycotic solution. The MCF-7 cells were grown in Eagle's MEM (Minimal Essential Medium) medium with stable glutamine (Biowest), supplemented with 10% (v/v) heat-inactivated FBS 1% (v/v) MEM non-essential amino acids (Biowest), 1% (v/v) antibiotic–antimycotic solution, and 1 mM sodium pyruvate (Merck). The MCF-10A cells were grown in Ham's F-12K (Kaighn's) Medium with stable glutamine (Gibco) supplemented with 5% (v/v) heat-inactivated FBS, 1% (v/v) MEM non-essential amino acids, 1% (v/v) antibiotic–antimycotic solution, 5 μg mL^−1 insulin, 0.04 μg mL^−1 hydrocortisone (Merck), and 15 ng mL^−1 human Epidermal Growth Factor (hEGF, PeproTech).
(§2) The in vitro antibacterial activity was determined according to ISO 20776-1.[88] Among the tested microorganisms were Gram-negative rods, E. coli ATCC25922 and P. aeruginosa ATCC27853, and Gram-positive cocci, S. aureus ATCC29213 and E. faecalis ATCC29212. The selected bacterial species represented the most common etiologic agents of human infections and are used for quality control of antimicrobial susceptibility testing.[89] The test procedure included the determination of MICs and MBCs of complexes and their free ligands. MIC and MBC determinations of ciprofloxacin, as the reference antibiotic, were also performed. All compounds were dissolved in DMSO to reach the maximum 512 mg L^−1 concentration. […] The assay consisted of preparing 2-fold dilutions of the substances in a liquid growth medium MH II and inoculating them with a standardized suspension of microorganisms at a McFarland density of 0.5 (≈10^8 CFU mL^−1). The culture plates were incubated at 35 °C for 24 h. The lowest concentration of the compound inhibiting visible bacterial growth was specified as MIC, and the concentration that reduced bacterial growth by >99.99% after counting live bacteria on the plates compared to the positive control was defined as MBC.

Data set [2] concerns P. aeruginosa ATCC27853. The data set can be described thus: Broth microdilution MIC/MBC (ISO 20776-1). The data set is classed as cell-based, Pseudomonas aeruginosa. The following applies: for MBC: P. aeruginosa ATCC27853, >99.99% reduction of growth; for MIC: P. aeruginosa ATCC27853, MH II broth, 35 °C, 24 h. As to the method:
as §1, §2

Data set [3] deals with S. aureus ATCC29213. The experiment in a line: Broth microdilution MIC/MBC (ISO 20776-1). The data set is classed as cell-based, Staphylococcus aureus. The conditions noted are these: for MBC: S. aureus ATCC29213, >99.99% reduction of growth; for MIC: S. aureus ATCC29213, MH II broth, 35 °C, 24 h. On the procedure: as §1, §2
On the technique in general: In broth dilution the organism is exposed to a series of concentrations in liquid medium.

Data set [4] relates to E. faecalis ATCC29212. The experiment in a line: Broth microdilution MIC/MBC (ISO 20776-1). The data set is classed as cell-based, Enterococcus faecalis. The following applies: for MBC: E. faecalis ATCC29212, >99.99% reduction of growth; for MIC: E. faecalis ATCC29212, MH II broth, 35 °C, 24 h. As to the method: as §1, §2
Data set [5] relates to HL-60 cells. The experiment in a line: MTT cytotoxicity assay. It is filed as cell-based, human. The conditions noted are these: MTT, read-out: IC50 ± SD. On the procedure: (§3) The cytotoxicities for studied compounds were evaluated against leukemia cells (HL-60), as well as ovarian (SKOV-3), prostate (PC-3), and breast (MCF-7) cancer cell lines. The potential selectivity of these compounds towards cancer cells was assessed by determination of their cytotoxicities towards breast non-cancerous cells (MCF-10A). For comparison, cisplatin was added to the cytotoxicity assays.
as §1
(§4) The cells were cultured in 96-well plates and incubated with the tested compound for 24 h and 48 h. All experiments were performed in exponentially growing cultures. The 0.03 M solutions of the compounds in DMSO were appropriately diluted using culture media. The maximal final concentration of DMSO in each well was 0.1%. The cytotoxicity of the compounds was measured by determining cell viability with a colorimetric test based on 3-(4,5-dimethylthiazol-2-yl)-2,5-diphenyltetrazolium bromide (MTT). MTT stock solution was added to each well to a final concentration of 0.5 mg mL^−1 and incubated for 4 h at 37 °C; following formazan crystals were dissolved by the addition of sodium dodecyl sulfate (SDS) solution (10% SDS in 0.001 M HCl). MTT and SDS were added directly to the cell culture. The compound's IC50 values (concentration required to reduce the viability of cells by 50% compared with the control cells) were calculated from the data obtained with the MTT assay.
In general terms: Tetrazolium dyes change colour on reduction, which living cells bring about.

For data set [6], the system named is MCF-7 cells. The data set can be described thus: MTT cytotoxicity assay. The data set is classed as cell-based, human. The conditions noted are these: MTT, read-out: IC50 ± SD. As to the method: as §3, §1, §4
Data set [7] concerns PC-3 cells. The data set can be described thus: MTT cytotoxicity assay. It is filed as cell-based, human. The following applies: for IC50: MTT, read-out: IC50 ± SD. As to the method:
as §3, §1, §4

In data set [8] the test system is SKOV-3 cells. The experiment in a line: MTT cytotoxicity assay. It is filed as cell-based, human. The conditions noted are these: MTT, read-out: IC50 ± SD. On the procedure:
as §3, §1, §4

For data set [9], the system named is MCF-10A cells. The data set can be described thus: MTT cytotoxicity assay. The conditions noted are these: for IC50: read-out: IC50 ± SD, MCF-10A (non-cancerous), MTT, * precipitation of the complex. On the procedure:
as §3, §1, §4

Where two headings read alike, the source gives them in different places.

By MBC is commonly meant the smallest concentration meeting the test's criterion for killing. One may read the MIC as the lowest concentration found to suppress growth. Low readings indicate a more susceptible organism, high ones a less susceptible organism. As usually defined, the IC50 is the midpoint of a concentration-inhibition curve. Regarding `Cc1ccc2cccc([O][Re])c2n1.[C-]#[O+].[C-]#[O+].[C-]#[O+].c1c[nH]cn1` [complex 5, [Re(CO)3(MeQ)Him]], the minimum bactericidal concentration (MBC) was 16/16 mg L^−1 in data set [1], 64 mg/L in [2], 512 mg/L in data set [3] and greater than 512 mg/L in [4]. Also, the minimum inhibitory concentration (MIC) in [1] is 16/16 mg L^−1; in [2] it was 16 mg/L; in [3], 16 mg/L; in data set [4], 32 mg/L. Moreover, in data set [1] (E. coli, compared with MeHQ), the “fold decline of MBC compared to the free ligand” value was determined as 5 fold. For the same molecule, the “fold better activity than the free MeHQ ligand” value in [2] (P. aeruginosa, MIC/MBC compared with MeHQ) came out at 4 fold. In addition, the “fold increase of MBC compared to the free ligand” value in [4] (E. faecalis, compared with MeHQ) was 4 fold. Also, the IC50 in data set [5] (HL-60, 24 h) stood at 11 ± 2 µM; in [5] (HL-60, 48 h), 4 ± 1 µM; in data set [6] (MCF-7, 24 h) it was 47 ± 7 µM; in data set [6] (MCF-7, 48 h), 43 ± 6 µM; in [7] (PC-3, 24 h), 11 ± 3 µM; in data set [7] (PC-3, 48 h) it was 28 ± 6 µM. In addition, the 50% inhibitory concentration (IC50) in data set [8] (SKOV-3, 24 h) is 31 ± 5 µM; in data set [8] (SKOV-3, 48 h), 26 ± 11 µM; in data set [9] (24 h), 50 ± 2 µM; in [9] (48 h) it was greater than 50 µM. For the same molecule, the “times lower effect after 48 h than after 24 h” value in [7] (PC-3, IC50 48 h versus 24 h) is on record as “about 2.5 times”. The “solubility in the cytotoxicity assay” value in [9] (MCF-10A cell line culture medium) is listed as “precipitated at higher concentrations”.

Consider `Clc1ccc([O][Re])c2ncccc12.[C-]#[O+].[C-]#[O+].[C-]#[O+].c1ccc(-c2ccn[nH]2)cc1` [complex 12, [Re(CO)3(ClQ)HPhpz]], for which the MBC in data set [1] is >512/>512 mg L^−1; in [2], >512/>512 mg L^−1; in data set [3], greater than 512 mg/L; in [4], greater than 512 mg/L. Also, the MIC in [1] was >512/>512 mg L^−1; in [2] it was >512/>512 mg L^−1; in [3] it was 128 mg/L; in data set [4], 16 mg/L. For the same molecule, the IC50 in [5] (HL-60, 24 h) is 2 ± 1 µM; in [5] (HL-60, 48 h) it was 1.5 ± 0.4 µM; in data set [6] (MCF-7, 24 h), 29 ± 3 µM; in data set [6] (MCF-7, 48 h), 25 ± 4 µM; in data set [7] (PC-3, 24 h) it was 41 ± 8 µM; in data set [7] (PC-3, 48 h), 23 ± 4 µM. Also, the IC50 is greater than 100 µM in data set [8] (SKOV-3, 24 h); 78 ± 12 µM in data set [8] (SKOV-3, 48 h); 34 ± 3 µM in data set [9] (24 h); 14 ± 1 µM in data set [9] (48 h).

`Clc1ccc([O][Re])c2ncccc12.[C-]#[O+].[C-]#[O+].[C-]#[O+].c1c[nH]cn1` [complex 9, [Re(CO)3(ClQ)Him]]: the MBC in data set [1] is 256/256 mg L^−1; in data set [2], greater than 512 mg/L; in [3], >512/>512 mg L^−1; in data set [4], greater than 512 mg/L. In addition, the minimal inhibitory concentration (MIC) was 256/256 mg L^−1 in data set [1], 256 mg/L in data set [2], >512/>512 mg L^−1 in [3] and 64 mg/L in [4]. In addition, the 50% inhibitory concentration (IC50) in data set [5] (HL-60, 24 h) is 11 ± 1 µM; in data set [5] (HL-60, 48 h), 8 ± 2 µM; in [6] (MCF-7, 24 h) it was 58 ± 7 µM; in data set [6] (MCF-7, 48 h) it was 47 ± 6 µM; in data set [7] (PC-3, 24 h), 29 ± 4 µM; in [7] (PC-3, 48 h), 22 ± 3 µM. The IC50 was 32 ± 5 µM in data set [8] (SKOV-3, 24 h); 28 ± 4 µM in [8] (SKOV-3, 48 h); 42 ± 2 µM in data set [9] (24 h); 24 ± 1 µM in data set [9] (48 h).

In the case of `Cc1cc(C)[nH]n1.Clc1ccc([O][Re])c2ncccc12.[C-]#[O+].[C-]#[O+].[C-]#[O+]` [complex 11, [Re(CO)3(ClQ)Hdmpz]], the minimal bactericidal concentration (MBC) in [1] was 512/>512 mg L^−1; in data set [2], >512/>512 mg L^−1; in data set [3], 256 mg/L; in [4], 64/64 mg L^−1. In addition, the MIC in data set [1] was 512/>512 mg L^−1; in data set [2], >512/>512 mg L^−1; in data set [3] it was 64 mg/L; in data set [4], 64/64 mg L^−1. The half-inhibitory concentration (IC50) in data set [5] (HL-60, 24 h) worked out at 5 ± 1 µM; in [5] (HL-60, 48 h) it was 2.8 ± 0.4 µM; in data set [6] (MCF-7, 24 h), 18 ± 5 µM; in data set [6] (MCF-7, 48 h), 25 ± 3 µM; in [7] (PC-3, 24 h), 18 ± 1 µM; in data set [7] (PC-3, 48 h), 24 ± 4 µM. Also, the IC50 was found to be 40 ± 6 µM in [8] (SKOV-3, 24 h); 32 ± 7 µM in [8] (SKOV-3, 48 h); 24 ± 3 µM in data set [9] (24 h); 10 ± 1 µM in data set [9] (48 h).

For the origin of these results see PMC11152041, “Tricarbonyl rhenium(I) complexes with 8-hydroxyquinolines: structural, chemical, antibacterial, and anticancer characteristics” (RSC Advances, 2024).
